Counter-ions that a name gives are not always drawn.
Target: T1, recombinant IRAK-4 kinase (Homo sapiens, UniProt Q9NWZ3)
T1 construct: purchased Millipore, USA
T1 sequence (Q9NWZ3 1-460): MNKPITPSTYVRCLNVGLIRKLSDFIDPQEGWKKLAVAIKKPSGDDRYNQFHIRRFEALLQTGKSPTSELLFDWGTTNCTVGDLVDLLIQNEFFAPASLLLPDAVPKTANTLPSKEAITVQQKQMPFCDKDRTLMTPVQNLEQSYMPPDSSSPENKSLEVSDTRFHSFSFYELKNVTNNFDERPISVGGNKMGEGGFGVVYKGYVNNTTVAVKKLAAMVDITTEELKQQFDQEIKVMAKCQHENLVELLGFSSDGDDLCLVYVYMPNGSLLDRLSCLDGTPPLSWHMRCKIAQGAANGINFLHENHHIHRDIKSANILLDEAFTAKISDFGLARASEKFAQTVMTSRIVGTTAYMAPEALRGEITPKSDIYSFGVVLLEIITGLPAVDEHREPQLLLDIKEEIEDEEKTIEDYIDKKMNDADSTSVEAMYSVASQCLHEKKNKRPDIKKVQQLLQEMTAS
Assay: IRAK-4 Biochemical Assay (TR-FRET)
Conditions: 30 min pre-incubation, 100 nM Biotin Histone H3, 20 μM ATP, read-out: IC50 values for IRAK4 activity
Experimental: Compounds were tested for their potential to inhibit IRAK-4 enzyme in a TR-FRET assay using recombinant IRAK-4 kinase from Millipore, USA. The assay buffer was 50 mM Tris-HCl pH 7.5, 20 mM MgCl2, 1 mM EGTA, 2 mM DTT, 3 mM MnCl2 and 0.01% Tween 20.5 ng of IRAK-4 kinase was used for the assay. After pre-incubation of enzyme with test compound for 30 minutes at room temperature, a substrate mixture containing 100 nM Biotin Histone H3 (Millipore, USA) and 20 μM ATP (Sigma, USA) was added and the reaction was incubated for 30 min. Post incubation, the reaction was stopped by the addition of stop mix containing 40 mM EDTA, 1 nM of Europium-Anti-Phospho-Histone H3 (Ser10) antibody (Perkin Elmer, USA) and 20 nM SureLight Allophycocyanin-Streptavidin (Perkin Elmer, USA). The fluorescence emission at 615 nm and 665 nm were measured at an excitation of 340 nm and the percent inhibition was estimated from the ratio of the fluorescence intensities [(F665/F615)×10000]. The compounds were initially screened at 1 μM and 10 μM concentrations and potent compounds (>50% inhibition at 1 μM) were taken for dose response studies. The IC50 values were estimated by fitting the dose-response data to sigmoidal dose response (variable slope), curve fitting program using Graphpad Prism software Version 6.01.

Row | IC50 [nM] | SMILES
1 | < 50 | Cc1ccc(C(=O)Nc2cc3cn(C)nc3cc2N2CCCCC2)nc1-c1ccc(N)nc1 [Example 29, 6′-amino-3-methyl-N-(2-methyl-6-(piperidin-1-yl)-2H-indazol-5-yl)-[2,3′-bipyridine]-6-carboxamide hydrochloride]
2 | < 50 | Cc1ccc(C(=O)Nc2cc3cn(C)nc3cc2N2CCCCC2)nc1-c1cnn(C)c1 [Example 30, 5-methyl-6-(1-methyl-1H-pyrazol-4-yl)-N-(2-methyl-6-(piperidin-1-yl)-2H-indazol-5-yl)picolinamide]
3 | < 50 | Cc1cc(-c2nc(C(=O)Nc3cc4cnn(C5CC5)c4cc3N3CCCCC3)co2)ccn1 [Example 31, N-(1-cyclopropyl-6-(piperidin-1-yl)-1H-indazol-5-yl)-2-(2-methylpyridin-4-yl)oxazole-4-carboxamide hydrochloride]
4 | < 50 | Cn1cc2cc(NC(=O)c3coc(-c4cccnc4O)n3)c(N3CCCCC3)cc2n1 [Example 32, 2-(2-hydroxypyridin-3-yl)-N-(2-methyl-6-(piperidin-1-yl)-2H-indazol-5-yl)oxazole-4-carboxamide]
5 | 50 to 100 | Cn1cc2cc(NC(=O)c3cccc(N4CC[C@H](N)C4)n3)c(N3CCCCC3)cc2n1 [Example 33, (S)-6-(3-aminopyrrolidin-1-yl)-N-(2-methyl-6-(piperidin-1-yl)-2H-indazol-5-yl)picolinamide 2,2,2-trifluoroacetate]
6 | < 50 | C[C@H](O)Cn1cc(-c2cccc(C(=O)Nc3cc4cn(C)nc4cc3N3CCCCC3)n2)cn1 [Example 34, (S)-6-(1-(2-hydroxypropyl)-1H-pyrazol-4-yl)-N-(2-methyl-6-(piperidin-1-yl)-2H-indazol-5-yl)picolinamide]
7 | 50 to 100 | Cc1cc(-c2nc(C(=O)Nc3cc4cnn(C5CC5)c4cc3C3CC3)co2)ccn1 [Example 36, N-(1,6-dicyclopropyl-1H-indazol-5-yl)-2-(2-methylpyridin-4-yl)oxazole-4-carboxamide hydrochloride]
8 | > 100 | Cn1ncc2cc(NC(=O)c3cccc(N4CC[C@H](O)C4)n3)c(C3CC3)cc21 [Example 37, (S)—N-(6-cyclopropyl-1-methyl-1H-indazol-5-yl)-6-(3-hydroxypyrrolidin-1-yl)picolinamide]
9 | < 50 | Cn1cc2cc(NC(=O)c3cccc(N4CC[C@@H](O)C4)n3)c(N3CCCCC3)cc2n1 [Example 38, (R)-6-(3-hydroxypyrrolidin-1-yl)-N-(2-methyl-6-(piperidin-1-yl)-2H-indazol-5-yl)picolinamide]
10 | < 50 | Cn1cc2cc(NC(=O)c3cccc(N4CC[C@H](O)C4)n3)c(N3CCCCC3)cc2n1 [Example 39, (S)-6-(3-hydroxypyrrolidin-1-yl)-N-(2-methyl-6-(piperidin-1-yl)-2H-indazol-5-yl)picolinamide]
11 | < 50 | Cn1cc2cc(NC(=O)c3cccc(N4CCC(O)C4)n3)c(N3CCCCC3)cc2n1 (stereo not shown) [Example 40, 6-(3-hydroxypyrrolidin-1-yl)-N-(2-methyl-6-(piperidin-1-yl)-2H-indazol-5-yl)picolinamide]
12 | 50 to 100 | Cn1cc2cc(NC(=O)c3cccc(N4CC[C@@H](N)C4)n3)c(N3CCCCC3)cc2n1 [Example 42, (R)-6-(3-aminopyrrolidin-1-yl)-N-(2-methyl-6-(piperidin-1-yl)-2H-indazol-5-yl)picolinamide]
13 | < 50 | C[C@@H](O)Cn1cc(-c2cccc(C(=O)Nc3cc4cn(C)nc4cc3N3CCCCC3)n2)cn1 [Example 43, (R)-6-(1-(2-hydroxypropyl)-1H-pyrazol-4-yl)-N-(2-methyl-6-(piperidin-1-yl)-2H-indazol-5-yl)picolinamide]
14 | < 50 | Cn1cc2cc(NC(=O)c3coc(N4CC[C@H](N)C4)n3)c(N3CCCCC3)cc2n1 [Example 44, (S)-2-(3-aminopyrrolidin-1-yl)-N-(2-methyl-6-(piperidin-1-yl)-2H-indazol-5-yl)oxazole-4-carboxamide]
15 | < 50 | Cc1cc(-c2nc(C(=O)Nc3cc4cnn(C)c4cc3C3CC3)co2)ccn1 [Example 45, N-(6-cyclopropyl-1-methyl-1H-indazol-5-yl)-2-(2-methylpyridin-4-yl)oxazole-4-carboxamide]
16 | 50 to 100 | C[C@H](O)Cn1cc(-c2cccc(C(=O)Nc3cc4cnn(C)c4cc3C3CC3)n2)cn1 [Example 46, (S)—N-(6-cyclopropyl-1-methyl-1H-indazol-5-yl)-6-(1-(2-hydroxypropyl)-1H-pyrazol-4-yl)picolinamide]

Row | IC50 [nM] | SMILES
17 | < 50 | C[C@H](O)Cn1cc(-c2cccc(C(=O)Nc3cc4cn(C)nc4cc3C3CC3)n2)cn1 [Example 47, (S)—N-(6-cyclopropyl-2-methyl-2H-indazol-5-yl)-6-(1-(2-hydroxypropyl)-1H-pyrazol-4-yl)picolinamide]
18 | > 100 | Cn1cc2cc(NC(=O)c3cccc(N4CC[C@H](N)C4)n3)c(C3CC3)cc2n1 [Example 48, (S)-6-(3-aminopyrrolidin-1-yl)-N-(6-cyclopropyl-2-methyl-2H-indazol-5-yl)picolinamide]
19 | < 50 | Cn1cc2cc(NC(=O)c3cccc(N4CC[C@H](O)C4)n3)c(C3CC3)cc2n1 [Example 49, (S)—N-(6-cyclopropyl-2-methyl-2H-indazol-5-yl)-6-(3-hydroxypyrrolidin-1-yl)picolinamide]
20 | > 100 | Cn1ncc2cc(NC(=O)c3coc(N4CC[C@H](O)C4)n3)c(C3CC3)cc21 [Example 50, (S)—N-(6-cyclopropyl-1-methyl-1H-indazol-5-yl)-2-(3-hydroxypyrrolidin-1-yl)oxazole-4-carboxamide]
21 | > 100 | Cn1ncc2cc(NC(=O)c3coc(N4CC[C@H](N)C4)n3)c(C3CC3)cc21 [Example 51, (S)-2-(3-aminopyrrolidin-1-yl)-N-(6-cyclopropyl-1-methyl-1H-indazol-5-yl)oxazole-4-carboxamide]
22 | < 50 | Cn1cc2cc(NC(=O)c3coc(N4CC[C@H](O)C4)n3)c(N3CCCCC3)cc2n1 [Example 52, (S)-2-(3-hydroxypyrrolidin-1-yl)-N-(2-methyl-6-(piperidin-1-yl)-2H-indazol-5-yl)oxazole-4-carboxamide]
23 | > 100 | C[C@H](O)Cn1cc(-c2nc(C(=O)Nc3cc4cnn(C)c4cc3C3CC3)co2)cn1 [Example 53, (S)—N-(6-cyclopropyl-1-methyl-1H-indazol-5-yl)-2-(1-(2-hydroxypropyl)-1H-pyrazol-4-yl)oxazole-4-carboxamide]
24 | > 100 | Cn1cc2cc(NC(=O)c3coc(N4CC[C@H](N)C4)n3)c(C3CC3)cc2n1 [Example 54, (S)-2-(3-aminopyrrolidin-1-yl)-N-(6-cyclopropyl-2-methyl-2H-indazol-5-yl)oxazole-4-carboxamide]
25 | 50 to 100 | Cn1cc2cc(NC(=O)c3coc(N4CC[C@H](O)C4)n3)c(C3CC3)cc2n1 [Example 55, (S)—N-(6-cyclopropyl-2-methyl-2H-indazol-5-yl)-2-(3-hydroxypyrrolidin-1-yl)oxazole-4-carboxamide]
26 | < 50 | CC(O)CNc1cccc(C(=O)Nc2cc3cn(C)nc3cc2N2CCCCC2)n1 (stereo not shown) [Example 57, 6-((2-hydroxypropyl)amino)-N-(2-methyl-6-(piperidin-1-yl)-2H-indazol-5-yl)picolinamide]
27 | < 50 | Cc1cc(-c2nc(C(=O)Nc3cc4cn(C)nc4cc3N3CCC(O)CC3)co2)ccn1 [Example 58, N-(6-(4-hydroxypiperidin-1-yl)-2-methyl-2H-indazol-5-yl)-2-(2-methylpyridin-4-yl)oxazole-4-carboxamide]
28 | > 100 | Cc1cc(-c2nc(C(=O)Nc3cc4cnn(C)c4cc3N3CCC3)co2)ccn1 [Example 59, N-(6-(azetidin-1-yl)-1-methyl-1H-indazol-5-yl)-2-(2-methylpyridin-4-yl)oxazole-4-carboxamide]
29 | < 50 | Cc1cc(-c2nc(C(=O)Nc3cc4cn(C)nc4cc3N3CCC3)co2)ccn1 [Example 60, N-(6-(azetidin-1-yl)-2-methyl-2H-indazol-5-yl)-2-(2-methylpyridin-4-yl)oxazole-4-carboxamide]
30 | < 50 | Cc1cc(-c2nc(C(=O)Nc3cc4cn(C)nc4cc3N3CC(O)C3)co2)ccn1 [Example 61, N-(6-(3-hydroxyazetidin-1-yl)-2-methyl-2H-indazol-5-yl)-2-(2-methylpyridin-4-yl)oxazole-4-carboxamide]
31 | < 50 | Cc1cc(-c2nc(C(=O)Nc3cc4cnn(C)c4cc3N3CCCC3)co2)ccn1 [Example 62, N-(1-methyl-6-(pyrrolidin-1-yl)-1H-indazol-5-yl)-2-(2-methylpyridin-4-yl)oxazole-4-carboxamide]

From patent publication US10160753B2, “Indazole compounds as IRAK4 inhibitors” (Aurigene Discovery Technologies Limited, priority 2014, dated 2018)
